Experimental data from patent US10072011B2, “Substituted bridged urea analogs as sirtuin modulators” (GlaxoSmithKline Intellectual Property (No.2) Limited, priority 2014, dated 2018).
Where two headings read alike, the source gives them in different places.

Target: T1, SIRT1 (Homo sapiens, UniProt Q96EB6)
T1 sequence (Q96EB6 1-747): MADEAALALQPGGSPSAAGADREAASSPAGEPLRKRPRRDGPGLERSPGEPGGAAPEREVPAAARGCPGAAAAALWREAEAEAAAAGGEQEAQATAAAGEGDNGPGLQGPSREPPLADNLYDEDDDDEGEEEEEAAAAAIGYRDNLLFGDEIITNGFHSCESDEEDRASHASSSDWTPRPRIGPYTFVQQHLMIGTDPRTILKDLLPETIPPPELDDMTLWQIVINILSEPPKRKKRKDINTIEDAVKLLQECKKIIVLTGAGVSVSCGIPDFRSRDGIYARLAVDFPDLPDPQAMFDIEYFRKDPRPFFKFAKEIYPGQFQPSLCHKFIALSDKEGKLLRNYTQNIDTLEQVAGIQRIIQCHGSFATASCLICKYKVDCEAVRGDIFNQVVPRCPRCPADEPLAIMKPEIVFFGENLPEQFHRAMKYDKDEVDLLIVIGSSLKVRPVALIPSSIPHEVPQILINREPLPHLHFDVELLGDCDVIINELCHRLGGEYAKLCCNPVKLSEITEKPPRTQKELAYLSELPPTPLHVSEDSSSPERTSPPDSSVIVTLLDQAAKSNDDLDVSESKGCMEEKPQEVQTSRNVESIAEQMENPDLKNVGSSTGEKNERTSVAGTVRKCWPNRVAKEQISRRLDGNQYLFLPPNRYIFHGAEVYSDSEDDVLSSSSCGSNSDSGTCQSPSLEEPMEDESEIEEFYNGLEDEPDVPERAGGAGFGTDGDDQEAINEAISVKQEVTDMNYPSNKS
Experiment: Trp mass spectrometry assay of SIRT1 activation (Ac-R-H-K-K(Ac)-W-NH2 peptide)
Format: biochemical
Conditions: for Emax: 25 min, read-out: TRP MAX RESP (percent maximum fold activation)
Procedure, shortened: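 Mass spectrometry read-out (OAADPR formed, or deacetylated Trp peptide) after a 25 min NAD-dependent deacetylation by E. coli-expressed His-SIRT1, stopped with formic acid.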

[1] = Trp peptide 0.5 μM, 120 μM βNAD+, 10 nM SIRT1, 25 min at 25° C., relative to control (100%)
[2] = Trp peptide 0.5 μM, 120 μM βNAD+, 10 nM SIRT1, 25 min at 25° C.

Emax [1] [%]	TRP Activity (EC1.5, concentration of test compound that results in 150% activation of SIRT1) [2]	SMILES	Emax [%]
> 150	B (EC1.5 1-25 μM)	O=C(O)c1ccc(NC(=O)N2c3nc(C(=O)NCC(F)(F)F)ccc3N3CC[C@H]2C3)nc1 [Example 213, 6-((4S)-7-((2,2,2-trifluoroethyl)carbamoyl)-2,3,4,5-tetrahydro-1,4-methanopyrido[2,3-b][1,4]diazepine-5-carboxamido)nicotinic acid]	–
> 150	B (EC1.5 1-25 μM)	Cc1ccc2c(NC(=O)N3c4nc(C(=O)NC5CC5)ccc4N4CC[C@H]3C4)n[nH]c2n1 [Example 54, (4S)—N7-cyclopropyl-N5-(6-methyl-1H-pyrazolo[3,4-b]pyridin-3-yl)-3,4-dihydro-1,4-methanopyrido[2,3-b][1,4]diazepine-5,7(2H)-dicarboxamide]	–
> 150	A (EC1.5<1 μM)	O=C(NCC(F)(F)F)c1ccc2c(n1)N(C(=O)Nc1cc(-c3cnco3)ccn1)[C@H]1CCN2C1 [Example 83, (4S)—N5-(4-(oxazol-5-yl)pyridin-2-yl)-N7-(2,2,2-trifluoroethyl)-3,4-dihydro-1,4-methanopyrido[2,3-b][1,4]diazepine-5,7(2H)-dicarboxamide]	–
> 150	A (EC1.5<1 μM)	O=C(NCC(F)(F)F)c1cc(O)c2c(n1)N(C(=O)Nc1ccccn1)[C@H]1CCN2C1 [Example 261, (4S)-9-hydroxy-N5-(pyridin-2-yl)-N7-(2,2,2-trifluoroethyl)-3,4-dihydro-1,4-methanopyrido[2,3-b][1,4]diazepine-5,7(2H)-dicarboxamide]	–
> 150	B (EC1.5 1-25 μM)	CC(C)(CCO)NC(=O)c1ccc2c(n1)N(C(=O)Nc1ccccn1)[C@H]1CCN2C1 [Example 209, (4S)—N7-(4-hydroxy-2-methylbutan-2-yl)-N5-(pyridin-2-yl)-3,4-dihydro-1,4-methanopyrido[2,3-b][1, 4] diazepine-5, 7(2H)-dicarboxamide]	–
> 150	B (EC1.5 1-25 μM)	CN(CC(F)(F)F)C(=O)c1ccc2c(n1)N(C(=O)Nc1ccccn1)[C@H]1CCN2C1 [Example 254, (4S)—N7-methyl-N5-(pyridin-2-yl)-N7-(2,2,2-trifluoroethyl)-3,4-dihydro-1,4-methanopyrido[2,3-b][1,4]diazepine-5,7(2H)-dicarboxamide]	–
> 150	A (EC1.5<1 μM)	O=C(NCC(F)(F)F)c1ccc2c(n1)N(C(=O)Nc1ccc(C3CC3)cn1)[C@H]1CCN2C1 [Example 174, (4S)—N5-(5-cyclopropylpyridin-2-yl)-N7-(2,2,2-trifluoroethyl)-3,4-dihydro-1,4-methanopyrido[2,3-b][1,4]diazepine-5,7(2H)-dicarboxamide]	–
> 150	B (EC1.5 1-25 μM)	C[C@H](NC(=O)c1ccc2c(n1)N(C(=O)Nc1cc(-c3cnco3)ccn1)[C@H]1CCN2C1)C(F)(F)F [Example 127, (4S)—N5-(4-(oxazol-5-yl)pyridin-2-yl)-N7-((S)-1,1,1-trifluoropropan-2-yl)-3,4-dihydro-1,4-methanopyrido[2,3-b][1,4]diazepine-5,7(2H)-dicarboxamide]	–
> 150	A (EC1.5<1 μM)	O=C(NCC1CC1)c1ccc2c(n1)N(C(=O)Nc1ncccn1)[C@H]1CCN2C1 [Example 97, (4S)—N7-(cyclopropylmethyl)-N5-(pyrimidin-2-yl)-3,4-dihydro-1,4-methanopyrido[2,3-b][1,4]diazepine-5,7(2H)-dicarboxamide]	–
> 150	B (EC1.5 1-25 μM)	C[C@@H](NC(=O)c1ccc2c(n1)N(C(=O)Nc1cc(OCCN)ccn1)[C@H]1CCN2C1)C(F)(F)F [Example 186, (4S)—N5-(4-(2-aminoethoxy)pyridin-2-yl)-N7-((R)-1,1,1-trifluoropropan-2-yl)-3,4-dihydro-1,4-methanopyrido[2,3-b][1,4]diazepine-5,7(2H)-dicarboxamide]	–
> 150	A (EC1.5<1 μM)	Cc1nc(NC(=O)N2c3nc(C(=O)NCC4CC4)ccc3N3CC[C@H]2C3)ccc1F [Example 112, (4S)—N7-(cyclopropylmethyl)-N5-(5-fluoro-6-methylpyridin-2-yl)-3,4-dihydro-1,4-methanopyrido[2,3-b][1,4]diazepine-5,7(2H)-dicarboxamide]	–
> 150	A (EC1.5<1 μM)	Cc1ncc(-c2ccnc(NC(=O)N3c4nc(C(=O)N[C@H](C)C(F)(F)F)ccc4N4CC[C@H]3C4)c2)o1 [Example 128, (4S)—N5-(4-(2-methyloxazol-5-yl)pyridin-2-yl)-N7-((R)-1,1,1-trifluoropropan-2-yl)-3,4-dihydro-1,4-methanopyrido[2,3-b][1,4]diazepine-5,7(2H)-dicarboxamide]	–
> 150	B (EC1.5 1-25 μM)	O=C(NC1CCC1)c1ccc2c(n1)N(C(=O)Nc1cnccn1)[C@H]1CCN2C1 [Example 206, (4S)—N7-cyclobutyl-N5-(pyrazin-2-yl)-3,4-dihydro-1,4-methanopyrido[2,3-b][1,4]diazepine-5,7(2H)-dicarboxamide]	–
> 150	B (EC1.5 1-25 μM)	CC(C)(CO)CNC(=O)c1ccc2c(n1)N(C(=O)Nc1ccccn1)[C@H]1CCN2C1 [Example 41, (4S)—N7-(3-hydroxy-2,2-dimethylpropyl)-N5-(pyridin-2-yl)-3,4-dihydro-1,4-methanopyrido[2,3-b][1,4]diazepine-5,7(2H)-dicarboxamide]	–
< 150	A (EC1.5<1 μM)	Cc1ncc(-c2ccnc(NC(=O)N3c4nc(C(=O)N[C@H](C)C(F)(F)F)cc(C)c4N4CC[C@H]3C4)c2)o1 [Example 252, (4S)-9-methyl-N5-(4-(2-methyloxazol-5-yl)pyridin-2-yl)-N7-((R)-1,1,1-trifluoropropan-2-yl)-3,4-dihydro-1,4-methanopyrido[2,3-b][1,4]diazepine-5,7(2H)-dicarboxamide]	–
–	B (EC1.5 1-25 μM)	NC(CNC(=O)c1ccc2c(n1)N(C(=O)Nc1ccccn1)[C@H]1CCN2C1)C(F)(F)F (single isomer, unassigned) [Example 249]	–

SMILES	Emax [1] [%]	TRP Activity (EC1.5, concentration of test compound that results in 150% activation of SIRT1) [2]	Emax [%]
N#CCNC(=O)c1ccc2c(n1)N(C(=O)Nc1ccccn1)[C@H]1CCN2C1 [Example 107, (4S)—N7-(cyanomethyl)-N5-(pyridin-2-yl)-3,4-dihydro-1,4-methanopyrido[2,3-b][1,4]diazepine-5,7(2H)-dicarboxamide]	–	A (EC1.5<1 μM)	> 150
O=C(Nc1ccc(Cl)cn1)N1c2nc(S(=O)(=O)NCC(F)(F)F)ccc2N2CC[C@H]1C2 [Example 277, (4S)—N-(5-chloropyridin-2-yl)-7-(N-(2,2,2-trifluoroethyl)sulfamoyl)-3,4-dihydro-1,4-methanopyrido[2,3-b][1,4]diazepine-5(2H)-carboxamide]	–	C (EC1.5>25 μM)	< 150
